Source: patent US6995190B2 (Veterinary Solutions, priority 2001, dated 2006)

Columns and labels:
platelet cyclo-oxygenase = conditions: horse, cited from earlier work
swine influenza = assay type: in vivo, finishing hogs
[1] = system: horse with chronic laminitis; assay: Horse with chronic laminitis, Ketoprofen in the water, acceptance and intake; assay type: in vivo; conditions: 1 mg per pound in the water for 2 weeks
[2] = system: PRRS (Porcine Respiratory and Reproductive Syndrome) Virus; assay: PRRS virus outbreak in swine nursery, Ketoprofen orally; assay type: in vivo; conditions: orally for 7 days, along with the same other therapy as controls
Text: A swine client with a 10,000 head nursery was experiencing severe mortality due to a PRRS (Porcine Respiratory and Reproductive Syndrome) Virus outbreak. They had used antibiotics with only partial success and were seeing mortalities as high as 30 percent in the group. […] We also saw less chronic pigs in the treatment group 3% versus 15% in the controls.

[3] = 1 mg/pound for 3 days orally through the drinking water

SMILES	reductions in exudates eicosanoid concentrations (platelet cyclo-oxygenase; carrageenin tissue-cage exudate)	duration of inhibition of platelet cyclo-oxygenase (platelet cyclo-oxygenase; oral)	morbidity at the time of the outbreak (swine influenza; [3])	mortality (swine influenza; [3])	average time to market, less than the control group (swine influenza; 1 mg/pound for 3 days orally through the drinking water, 150 pound finishing hogs marketed at 260 pounds)	follow-up mass medication with antibiotics (swine influenza; two weeks after the outbreak)	pain compared with previous treatment (phenylbutazone) [1]	chronic pigs [2]	mortality [2]
CN=C1CCN(c2cccc(C(F)(F)F)c2)N1 [BW540C]	less pronounced	24 h							
CC(C(=O)O)c1cccc(C(=O)c2ccccc2)c1 (stereo not drawn) [Ketoprofen]			10%	2.1%	9 days	did not require any mass medication with antibiotics	less painful	3%	7%
